Source: patent publication US20250066338A1, “CERTAIN 3-AZABICYCLO[3.1.0]HEXANES AS GLP-1 RECEPTOR MODULATORS” (AstraZeneca AB, priority 2021, published 2025)

Assays:
[1] = molecular target: human GLP-1R receptor (Homo sapiens (Human), UniProt P43220, L260F); test: CHOK1 GLP-1R cAMP Assay; type: cell-based; conditions: CHO-K1 cell line stably expressing human GLP-1R; HTRF cAMP; agonist activity
Description: A cell line stably expressing the human GLP-1R receptor (NM 002062.5, including the naturally-occurring variant Leu260Phe) in a CHO-K1 (ATCC® CCL-61™) was used for assay.
GLP-1 receptor mediated agonist activity was determined in a cell based assay measuring cyclic adenosine monophosphate (cAMP) levels in cells using Homogeneous Time-Resolved Fluorescence (HTRF) cAMP detection kit (CisBio catalog #62AM4PEC, cAMP Gs Dynamic range kit). The cAMP detection method is based on a competitive immunoassay, in which cAMP produced by the cells and cAMP labeled with the dye d2 compete for binding to a Europium-Cryptate-labeled anti-cAMP antibody. The specific HTRF signal is inversely proportional to the concentration of cAMP.
Compounds were added to individual well in 384 well-assay plates (Greiner #784076) using an Echo (LabCyte) dispenser from 10 mM stocks. Varying concentration of compounds were added to wells, and DMSO was used to normalize each well to a volume of 100 nL. A dose response curve of GLP1(7-36)NH2 (Bachem H-6795) was included in each run. 5 μL of cAMP concentration response standards are applied in specified wells in the assay plates. Cryo-preserved cells are thawed and resuspended in assay buffer pre-heated to 37° C. (20 mM HEPES pH 7.4, lx Hank's Balanced Salt Solution (HBSS, Life Technologies #14065) supplemented with 0.1% (w/v) bovine serum albumin (Sigma, A-7030). Cells were centrifuged at 250*g for 5 min at rt, and resuspended in room tempered assay buffer to a final density of 0.16*10^6 cell/mL, to deliver 800 cells/well. 5 μL of assay buffer with 1 mM 3-isobutyl-1-methylxanthin (IBMX; Sigma cat I-7018) was dispensed per well in assay plates using a multidrop combi (Thermo Scientific) subsequently 5 μL of cell suspension was distributed to relevant wells in the assay using a multidrop dispenser. Assay plates were incubated 20 min at rt.
Detection reagents, Europium-Cryptate-labeled anti-cAMP antibody and cAMP labeled with the dye d2, are diluted in lysis buffer, provided by the manufacturer. 5 μL of each detection reagent is supplemented to each assay well using a multidrop dispenser. Assay plates are incubated in the dark for at least one h. The HTRF signal is measured using the HTRF module (excitation: 337 nm, emission A: 665 nm and emission B: 620 nm) in Pherastar FSX (BMG Labtech).
Raw data were converted to pM cAMP using the cAMP standard curve included in each run. Converted data were further analyzed in Genedata Screener (Genedata) and EC50 determinations were made from agonist dose-response curves analyzed with a curve fitting program using a 4-parameter logistic dose response equation (Equation y=A+((B−A)/1+((C/x)^D))) where A is no stimulation, B is full stimulation, C is the EC50 and D is the Hill slope). The percent effect was determined relative to a saturating concentration of a full GLP-1R agonist (GLP1(7-36)NH2 has 100% effect in this assay setup).

[2] = molecular target: GLP-1R in EndoC-βH1 cells (Homo sapiens (Human), UniProt P43220); test: EndoC cAMP Accumulation Assay; type: cell-based; conditions: EndoC-βH1 human pancreatic beta cell line; HTRF cAMP accumulation
Description: EndoC cAMP Accumulation Assay
A HTRF cAMP assay (cAMP Gs dynamic kit; CisoBio Cat #62AM4PEJ) was used to identify agonists of GLP-1R in a pancreatic insulinoma cell line (EndoC-βH1). […] EndoC-βH1 cells have detectable GLP-1R messenger ribonucleic acid (mRNA) as detected by quantitative polymerase chain reaction (qPCR). […] The EndoC-βH1 cell line is a valid model of human beta cells and applicable for screenings to identify novel drug target candidates (Mol. Metab., 2018, 8, 144-157). CisBio HTRF cAMP kits are based on a competitive immunoassay using cryptate-labelled anti-cAMP antibody and d2-labeled cAMP. The detection kit is intended for the direct quantitative determination of cAMP. The specific signal (i.e. energy transfer) is inversely proportional to the concentration of cAMP in the standard or sample. Test compounds (10 mM in DMSO) were diluted into assay buffer (HBSS (Sigma #H8264) supplemented with 25 mM HEPES (Gibco #15630, pH 7.4), 0.1% BSA (Sigma #A3059) and 0.5 mM IBMX (Sigma #17018) included fresh on the day of the assay) into 96 well U-bottom plates (Greiner #650201). Diluted compounds were transferred to ECHO source polypropylene plates (Labcyte #P-05525) and dose response curves were dispensed acoustically using ECHO 550 into black shallow-well u-bottom 384-well HTRF Assay Plates (Corning 4514).
Cryovials of EndoC-H1 (supplied at 1×10e^7 cells/vial) were used directly for screening. The cryovials and were removed from N2 (1) and thawed rapidly in a 37° C. water bath. The cells were resuspended in assay buffer and centrifuged at 300 g for 5 min. Cells were resuspended in assay buffer at the appropriate concentration, typically at 12e5 cells per mL (3000 cells per well, dependent on cell batch) and 2.5 μL diluted cells were added to all wells of destination plate by Multidrop combi reagent dispenser (Thermofisher). The plates were incubated at rt for 30 min. The assay was stopped by adding 2.5 μL anti-cAMP cryptate solution to all wells and 2.5 μL cAMP-d2 solution (both diluted 1:20 in lysis buffer) to columns 1-22 by Combi drop. A volume of 2.5 μL cAMP-d2 solution was added to wells E23 to P24 and 2.5 μL lysis buffer added to wells A23 to D24 by multichannel pipette. The plates were incubated at rt for 1 h and read on an Envision plate reader using excitation wavelength of 320 nm and emission of […] and 660 nm.
Raw data from Envision is converted to % DeltaF according to the manufacturer's instructions. Dose response curves are analysed via 4-Parameter Logistical Analysis and assay plate Z′ values obtained. Samples are graphed as percentage (%) activation plots compared to GIP (1-42, Bachem H-5645) with assay window defined by negative control as basal cell cAMP levels and positive control are defined by maximum GIP (82.5 nM) signal. GLP1 (7-36 amide, Bachem H-6795) dose response curve was included on all plates.

[3] = molecular target: human phosphodiesterase-3A (Homo sapiens (Human), UniProt Q14432); test: PDE3 Assay; type: biochemical; conditions: human recombinant enzyme expressed in Sf9 cells; formation of 5'AMP from cAMP
Description: Evaluation of the effects of compounds on the activity of the human phosphodiesterase-3A is quantified by measuring the formation of 5′AMP from cAMP using a human recombinant enzyme expressed in a clonal isolate of Spodoptera frugiperda cells (Sf9) cells.
The test compound, reference compound or water (control) are added to a buffer containing 40 mM tris(hydroxymethyl)aminomethane (Tris)/HCl (pH 7.4) and 8 mM MgCl2, 450 nMcAMP and 0.25 μCi [^3H]cAMP.
Thereafter, the reaction is initiated by addition of the enzyme (about 1 U) and the mixture is incubated for 20 min at 22° C.
For basal control measurements, the enzyme is omitted from the reaction mixture. Following incubation SPA beads are added. After 30 min at 22° C. under shaking, the amount of [^3H]^+ 5′AMP is quantified with a scintillation counter (Topcount, Packard).
The results are expressed as a percent inhibition of the control enzyme activity. The standard inhibitory reference compound is milrinone (CAS number 78415-72-2), which is tested in each experiment at several concentrations to obtain an inhibition curve from which its IC50 value is calculated.

Chain of human phosphodiesterase-3A (Q14432 whole entry): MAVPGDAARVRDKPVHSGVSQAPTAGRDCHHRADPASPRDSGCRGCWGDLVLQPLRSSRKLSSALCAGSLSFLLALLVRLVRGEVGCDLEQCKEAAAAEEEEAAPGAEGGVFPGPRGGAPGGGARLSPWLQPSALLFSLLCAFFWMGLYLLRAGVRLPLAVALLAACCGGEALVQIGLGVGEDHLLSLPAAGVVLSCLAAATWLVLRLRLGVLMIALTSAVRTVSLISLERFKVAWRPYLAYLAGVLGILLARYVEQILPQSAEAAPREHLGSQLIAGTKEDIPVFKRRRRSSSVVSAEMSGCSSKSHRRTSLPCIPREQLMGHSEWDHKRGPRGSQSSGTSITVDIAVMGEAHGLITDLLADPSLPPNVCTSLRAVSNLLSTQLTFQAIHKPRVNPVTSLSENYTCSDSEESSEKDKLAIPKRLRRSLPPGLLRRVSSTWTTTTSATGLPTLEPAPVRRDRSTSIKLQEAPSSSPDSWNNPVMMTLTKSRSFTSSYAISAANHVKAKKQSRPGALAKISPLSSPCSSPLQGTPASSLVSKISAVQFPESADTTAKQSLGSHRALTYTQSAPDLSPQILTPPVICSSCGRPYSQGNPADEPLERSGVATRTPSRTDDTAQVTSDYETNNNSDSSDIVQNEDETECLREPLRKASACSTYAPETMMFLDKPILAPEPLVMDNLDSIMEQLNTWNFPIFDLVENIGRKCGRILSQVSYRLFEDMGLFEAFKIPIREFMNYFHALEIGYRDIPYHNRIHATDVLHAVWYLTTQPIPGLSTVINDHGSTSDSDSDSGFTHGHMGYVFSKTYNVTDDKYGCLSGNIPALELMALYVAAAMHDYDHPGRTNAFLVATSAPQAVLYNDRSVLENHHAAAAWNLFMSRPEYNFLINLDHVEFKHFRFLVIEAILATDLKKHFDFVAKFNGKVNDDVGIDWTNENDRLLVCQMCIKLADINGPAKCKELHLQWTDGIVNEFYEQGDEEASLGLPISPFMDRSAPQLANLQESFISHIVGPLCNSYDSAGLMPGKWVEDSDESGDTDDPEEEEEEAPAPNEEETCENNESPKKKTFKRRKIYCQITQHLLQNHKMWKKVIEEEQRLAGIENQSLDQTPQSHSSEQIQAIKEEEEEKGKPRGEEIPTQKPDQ
Chain of GLP-1R in EndoC-βH1 cells (P43220 24-463): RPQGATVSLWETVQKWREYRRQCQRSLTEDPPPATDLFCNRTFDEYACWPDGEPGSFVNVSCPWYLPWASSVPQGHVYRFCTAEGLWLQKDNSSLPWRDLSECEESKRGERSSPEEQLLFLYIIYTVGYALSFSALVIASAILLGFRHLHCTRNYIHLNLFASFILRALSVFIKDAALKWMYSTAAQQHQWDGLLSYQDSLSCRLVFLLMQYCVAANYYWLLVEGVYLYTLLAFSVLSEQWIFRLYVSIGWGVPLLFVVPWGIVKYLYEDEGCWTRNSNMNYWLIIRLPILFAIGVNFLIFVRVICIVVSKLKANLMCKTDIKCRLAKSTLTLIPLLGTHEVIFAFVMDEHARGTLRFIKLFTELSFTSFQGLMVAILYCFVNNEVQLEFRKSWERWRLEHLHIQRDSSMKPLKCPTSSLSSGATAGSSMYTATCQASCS
Chain of human GLP-1R receptor (P43220 24-463 L260F): as the sequence (P43220 24-463) above, with L237F counted along it

Row | EC50 [1] [nM] | EC50 [2] [nM] | IC50 [3] [nM] | Compound
1 | 100 | 23 | > 100000 | O=C(O)c1ccc2nc(CN3C[C@@H]4[C@H](C3)[C@H]4c3cccc(OCc4ccc(Cl)cc4F)n3)n(C[C@@H]3CCO3)c2c1 [Example 13, 2-(((1R,5S,6S)-6-(6-((4-Chloro-2-fluorobenzyl)oxy)pyridin-2-yl)-3-azabicyclo[3.1.0]hexan-3-yl)methyl)-1-(((S)-oxetan-2-yl)methyl)-1H-benzo[d]imidazole-6-carboxylic acid]
2 | 57 | 28 |  | O=C(O)c1cc(F)c2nc(CN3C[C@@H]4[C@H](C3)[C@H]4c3cccc(OCc4ccc(Cl)cc4F)n3)n(C[C@@H]3CCO3)c2c1 [Example 15, 2-(((1R,5S,6S)-6-(6-((4-Chloro-2-fluorobenzyl)oxy)pyridin-2-yl)-3-azabicyclo[3.1.0]hexan-3-yl)methyl)-4-fluoro-1-(((S)-oxetan-2-yl)methyl)-1H-benzo[d]imidazole-6-carboxylic acid]
3 | 47 | 24 |  | O=C(O)c1ccc2nc(CN3C[C@@H]4[C@H](C3)[C@H]4c3nc(OCc4ccc(Cl)cc4F)ccc3F)n(C[C@@H]3CCO3)c2c1 [Example 16, 2-(((1R,5S,6S)-6-(6-((4-Chloro-2-fluorobenzyl)oxy)-3-fluoropyridin-2-yl)-3-azabicyclo[3.1.0]hexan-3-yl)methyl)-1-(((S)-oxetan-2-yl)methyl)-1H-benzo[d]imidazole-6-carboxylic acid]
4 | 15 | 9.3 | > 100000 | CCn1cncc1Cn1c(CN2C[C@@H]3[C@H](C2)[C@H]3c2nc(OCc3ccc(Cl)cc3F)ccc2F)nc2c(OC)cc(C(=O)O)cc21 [Example 17, 2-(((1R,5S,6r)-6-(6-((4-Chloro-2-fluorobenzyl)oxy)-3-fluoropyridin-2-yl)-3-azabicyclo[3.1.0]hexan-3-yl)methyl)-1-((1-ethyl-1H-imidazol-5-yl)methyl)-4-methoxy-1H-benzo[d]imidazole-6-carboxylic acid]
5 | 66 | 42 |  | COc1cc(C(=O)O)cc2c1nc(CN1C[C@@H]3[C@H](C1)[C@H]3c1nc(OCc3ccc(Cl)cc3F)ccc1Cl)n2C[C@@H]1CCO1 [Example 18, 2-(((1R,5S,6S)-6-(3-Chloro-6-((4-chloro-2-fluorobenzyl)oxy)pyridin-2-yl)-3-azabicyclo[3.1.0]hexan-3-yl)methyl)-4-methoxy-1-(((S)-oxetan-2-yl)methyl)-1H-benzo[d]imidazole-6-carboxylic acid]
6 | 62 | 43 |  | COc1cc(C(=O)O)cc2c1nc(CN1C[C@@H]3[C@H](C1)[C@H]3c1cccc(OCc3ccc(F)cc3F)n1)n2C[C@@H]1CCO1 [Example 20, 2-(((1R,5S,6S)-6-(6-((2,4-Difluorobenzyl)oxy)pyridin-2-yl)-3-azabicyclo[3.1.0]hexan-3-yl)methyl)-4-methoxy-1-(((S)-oxetan-2-yl)methyl)-1H-benzo[d]imidazole-6-carboxylic acid]
7 | 44 | 1100 |  | COc1cc(C(=O)O)cc2c1nc(CN1C[C@@H]3[C@H](C1)[C@H]3c1cccc(OCc3cc(C)ccc3F)n1)n2C[C@@H]1CCO1 [Example 21, 2-(((1R,5S,6S)-6-(6-((2-Fluoro-5-methylbenzyl)oxy)pyridin-2-yl)-3-azabicyclo[3.1.0]hexan-3-yl)methyl)-4-methoxy-1-(((S)-oxetan-2-yl)methyl)-1H-benzo[d]imidazole-6-carboxylic acid]
8 | 49 | 34 |  | COc1cc(C(=O)O)cc2c1nc(CN1C[C@@H]3[C@H](C1)[C@H]3c1cccc(OCc3ccccc3OC(F)F)n1)n2C[C@@H]1CCO1 [Example 22, 2-(((1R,5S,6S)-6-(6-((2-(Difluoromethoxy)benzyl)oxy)pyridin-2-yl)-3-azabicyclo[3.1.0]hexan-3-yl)methyl)-4-methoxy-1-(((S)-oxetan-2-yl)methyl)-1H-benzo[d]imidazole-6-carboxylic acid]
9 | 74 | 31 |  | COc1cc(C(=O)O)cc2c1nc(CN1C[C@@H]3[C@H](C1)[C@H]3c1cccc(OCc3ccc(C)cc3)n1)n2C[C@@H]1CCO1 [Example 23, 4-Methoxy-2-(((1R,5S,6S)-6-(6-((4-methylbenzyl)oxy)pyridin-2-yl)-3-azabicyclo[3.1.0]hexan-3-yl)methyl)-1-(((S)-oxetan-2-yl)methyl)-1H-benzo[d]imidazole-6-carboxylic acid]
10 |  |  | 4000 | N#Cc1ccc(COc2cccc(C3=CCN(Cc4nc5ccc(C(=O)O)cc5n4C[C@@H]4CCO4)CC3)n2)c(F)c1 [Ref Comp A, reference compound]
11 |  |  | 11000 | N#Cc1ccc(COc2cccc(C3CCN(Cc4nc5ccc(C(=O)O)cc5n4C[C@H]4CCO4)CC3)n2)c(F)c1 [Ref Comp B, reference compound]
12 |  |  | 5000 | Cc1cc(Cc2nc3ccc(C(=O)O)cc3n2C[C@@H]2CCO2)c(F)cc1-c1cccc(OCc2ccc(C#N)cc2F)n1 [Ref Comp D, reference compound]
